# In patent publication US20260062422A1 (Halda Therapeutics OpCo, Inc., priority 2022, published 2026):
# Assays:
# VCaP cells = experiment: Cellular growth inhibition assay for VCaP cells, CellTiter-Glo; format: cell-based, human; conditions: 72 hours treatment, CellTiter-Glo 2.0
# Experimental: VCaP cells were purchased from American Type Cell Culture (ATCC Cat #CRL2876) and then seeded on poly-D-lysine coated, black clear-bottom 384-well plates at 5000/well in 25 μL Dulbecco's Modified Eagle Medium (DMEM) supplemented with 10% w/w Fetal bovine serum (FBS) and 1% w/w Pen-Strep. Pen-Strep is a commercially available mixture of penicillin G and streptomycin, which is used in mammalian cell culture media to prevent bacterial contamination. Dulbecco's Modified Eagle Medium (DMEM) supplemented with 10% w/w fetal bovine serum (FBS) and 1% w/w Pen-Strep is herein referred to as Treatment Medium. Following seeding of cells in the plates, the plates were spun at 300×g for 30 seconds, then equilibrated to room temperature for 30 minutes, and then deposited in a humidified tissue culture incubator maintained at 37° C. with 5% CO2.
# (§1) At 24 hours after seeding of the cells, dilutions of test compound were prepared in DMSO and dissolved in Treatment Medium, to achieve a final DMSO concentration of 0.5% w/w, thereby providing the Test Compound Solution. A 25 μL aliquot of the Test Compound Solution was added to cells in the well plates. An equal volume of a solution containing DMSO and Treatment Medium was used as a negative control. Following treatment of cells with Test Compound Solution or said equal volume of a solution containing DMSO and Treatment Medium, the plates were spun at 300×g for 30 seconds, and then left in an incubator for 72 hours.
# (§2) At the end of the treatment duration, cell viability was quantified with CellTiter-Glo 2.0 reagent (Promega Cat #G9243). For this purpose, plates were equilibrated to room temperature for 30 minutes, and then 25 μL of CellTiter-Glo 2.0 reagent was added to cells in the plate wells. Plates were then agitated on a shaker for two minutes at 500 rpm and subsequently incubated at room temperature for 10 minutes. Following incubation, the plates were spun at 3000×g for 30 seconds, then sealed with an optical adhesive cover, and luminescence readings were measured with an EnVision Plate Reader.
# (§3) Data was normalized using zero luminescence for baseline. A four-parameter non-linear regression curve fit was applied to dose-response data in GraphPad Prism data analysis software to determine the half-maximal growth inhibitory concentration (GI50) for each test compound.
# T47D cells = experiment: Cellular growth inhibition assay for T47D cells, CellTiter-Glo; format: cell-based, human; conditions: 72 hours treatment, CellTiter-Glo 2.0 cell viability
# Experimental: T47D cells were purchased from American Type Cell Culture (ATCC Cat #HTB-133) and then seeded on poly-D-lysine coated, black clear-bottom 384-well plates at 3000/well in 25 μL Dulbecco's Modified Eagle Medium (DMEM) supplemented with 10% w/w Fetal bovine serum (FBS), 0.2 units/mL recombinant human insulin (Gibco Cat #12585014), and 1% w/w Pen-Strep. Pen-Strep is a commercially available mixture of penicillin G and streptomycin, which is used in mammalian cell culture media to prevent bacterial contamination. Dulbecco's Modified Eagle Medium (DMEM) supplemented with 10% w/w fetal bovine serum (FBS), 0.2 units/mL recombinant human insulin, and 1% w/w Pen-Strep is herein referred to as Treatment Medium. Following seeding of cells in the plates, the plates were spun at 300×g for 30 seconds, then equilibrated to room temperature for 30 minutes, and then deposited in a humidified tissue culture incubator maintained at 37° C. with 5% CO2.
# as §1
# as §2, with “Reader (Perkin Elmer).” for “Reader.”
# as §3
"GI50 (VCaP cells; Homo sapiens, VCaP, 72 h)","GI50 (T47D cells; Homo sapiens, T47D, 72 h)",GI50 (VCaP cells),GI50 (T47D cells),Compound
< 500 nM,> 3000 nM,,,Cc1sc2c(c1C)C(c1ccc(C[C@H]3CC[C@@H]4CN(c5ncc(C(=O)N[C@H]6C(C)(C)[C@H](Oc7ccc(C#N)c(Cl)c7)C6(C)C)cn5)CCN4C3)cc1)=N[C@@H](Cc1ncco1)c1nnc(C)n1-2 [Compound I-304]
> 3000 nM,500 to 1500 nM,,,Cc1sc2c(c1C)C(c1ccc(C[C@@H]3CC[C@@H]4CN(c5ncc(C(=O)N[C@H]6C(C)(C)[C@H](Oc7ccc(C#N)c(Cl)c7)C6(C)C)cn5)CCN4C3)cc1)=C[C@@H](Cc1ncco1)c1nnc(C)n1-2 [Compound I-305]
< 500 nM,< 500 nM,,,Cc1sc2c(c1C)C(c1ccc(C[C@@H]3CC[C@@H]4CN(c5ncc(C(=O)N[C@H]6C(C)(C)[C@H](Oc7ccc(C#N)c(Cl)c7)C6(C)C)cn5)CCN4C3)cc1)=N[C@H](Cc1ncco1)c1nnc(C)n1-2 [Compound I-307]
> 3000 nM,> 3000 nM,,,Cc1sc2c(c1C)C(c1ccc(C[C@@H]3CC[C@]4(C3)CN(c3ncc(C(=O)N[C@H]5C(C)(C)[C@H](Oc6ccc(C#N)c(Cl)c6)C5(C)C)cn3)CCO4)cc1)=N[C@@H](Cc1ncco1)c1nnc(C)n1-2 [Compound I-308]
> 3000 nM,> 3000 nM,,,Cc1sc2c(c1C)C(c1ccc(C[C@@H]3CC[C@@]4(C3)CN(c3ncc(C(=O)N[C@H]5C(C)(C)[C@H](Oc6ccc(C#N)c(Cl)c6)C5(C)C)cn3)CCO4)cc1)=N[C@@H](Cc1ncco1)c1nnc(C)n1-2 [Compound I-309]
< 500 nM,< 500 nM,,,Cc1sc2c(c1C)C(c1ccc(C[C@H]3CC[C@]4(C3)CN(c3ncc(C(=O)N[C@H]5C(C)(C)[C@H](Oc6ccc(C#N)c(Cl)c6)C5(C)C)cn3)CCO4)cc1)=N[C@@H](Cc1ncco1)c1nnc(C)n1-2 [Compound I-310]
< 500 nM,< 500 nM,,,Cc1sc2c(c1C)C(c1ccc(OC3CCN(C4CCN(c5ncc(C(=O)N[C@H]6C(C)(C)[C@H](Oc7ccc(C#N)c(Cl)c7)C6(C)C)cn5)CC4)CC3)cc1)=N[C@@H](Cc1ncco1)c1nnc(C)n1-2 [Compound I-313]
> 3000 nM,> 3000 nM,,,Cc1sc2c(c1C)C(c1ccc(N3CCC[C@H](C(=O)N4CCCC4c4ncc(C(=O)N[C@H]5C(C)(C)[C@H](Oc6ccc(C#N)c(Cl)c6)C5(C)C)cn4)C3)cc1)=N[C@H](Cc1ncco1)c1nnc(C)n1-2 (stereo partly shown) [Compound I-315]
< 500 nM,500 to 1500 nM,,,Cc1sc2c(c1C)C(c1ccc(CNC(=O)Cc3ncc(C(=O)N[C@H]4C(C)(C)[C@H](Oc5ccc(C#N)c(Cl)c5)C4(C)C)cn3)cc1)=N[C@@H](Cc1ncco1)c1nnc(C)n1-2 [Compound I-316]
> 3000 nM,> 3000 nM,,,Cc1sc2c(c1C)C(c1ccc(C(=O)N3CCC[C@@H](Cc4ncc(C(=O)N[C@H]5C(C)(C)[C@H](Oc6ccc(C#N)c(Cl)c6)C5(C)C)cn4)C3)cc1)=N[C@@H](Cc1ncco1)c1nnc(C)n1-2 [Compound I-318]
,,1500 to 3000 nM,> 3000 nM,Cc1sc2c(c1C)C(c1ccc(C(=O)N3CCC[C@@H](Cc4ncc(C(=O)N[C@H]5C(C)(C)[C@H](Oc6ccc(C#N)c(Cl)c6)C5(C)C)cn4)C3)cc1)=N[C@@H](Cc1ncco1)c1nnc(C)n1-2 [Compound I-319]
< 500 nM,< 500 nM,,,Cc1sc2c(c1C)C(c1ccc(CCC[C@@H]3CCCN(c4ncc(C(=O)N[C@H]5C(C)(C)[C@H](Oc6ccc(C#N)c(Cl)c6)C5(C)C)cn4)C3)cc1)=N[C@@H](Cc1ncco1)c1nnc(C)n1-2 [Compound I-320]
< 500 nM,< 500 nM,,,Cc1sc2c(c1C)C(c1ccc(CCC[C@H]3CCCN(c4ncc(C(=O)N[C@H]5C(C)(C)[C@H](Oc6ccc(C#N)c(Cl)c6)C5(C)C)cn4)C3)cc1)=N[C@@H](Cc1ncco1)c1nnc(C)n1-2 [Compound I-321]
< 500 nM,< 500 nM,,,Cc1sc2c(c1C)C(c1ccc(CCO[C@@H]3CCCN(c4ncc(C(=O)N[C@H]5C(C)(C)[C@H](Oc6ccc(C#N)c(Cl)c6)C5(C)C)cn4)C3)cc1)=N[C@@H](Cc1ncco1)c1nnc(C)n1-2 [Compound I-322]
< 500 nM,< 500 nM,,,Cc1sc2c(c1C)C(c1ccc(CCO[C@H]3CCCN(c4ncc(C(=O)N[C@H]5C(C)(C)[C@H](Oc6ccc(C#N)c(Cl)c6)C5(C)C)cn4)C3)cc1)=N[C@@H](Cc1ncco1)c1nnc(C)n1-2 [Compound I-323]
,< 500 nM,,,Cc1sc2c(c1C)C(c1ccc(N3CC(CC4CCN(c5cnc(C(=O)N[C@H]6C(C)(C)[C@H](Oc7ccc(C#N)c(Cl)c7)C6(C)C)cn5)CC4)C3)cc1)=N[C@@H](Cc1ncco1)c1nnc(C)n1-2 [Compound I-575]
,< 500 nM,,,Cc1sc2c(c1C)C(c1ccc(N3CC(C4CCCC(Cc5ncc(C(=O)N[C@H]6C(C)(C)[C@H](Oc7ccc(C#N)c(Cl)c7)C6(C)C)cn5)C4)C3)cc1)=N[C@@H](Cc1ncco1)c1nnc(C)n1-2 (stereo partly shown) [Compound I-579]
,,,< 500 nM,Cc1sc2c(c1C)C(c1ccc(N3CC(C4CCCC(Cc5ncc(C(=O)N[C@H]6C(C)(C)[C@H](Oc7ccc(C#N)c(Cl)c7)C6(C)C)cn5)C4)C3)cc1)=N[C@@H](Cc1ncco1)c1nnc(C)n1-2 (stereo partly shown) [Compound I-580]
,,,< 500 nM,Cc1sc2c(c1C)C(c1ccc(N3CC(C4CCCC(Cc5ncc(C(=O)N[C@H]6C(C)(C)[C@H](Oc7ccc(C#N)c(Cl)c7)C6(C)C)cn5)C4)C3)cc1)=N[C@@H](Cc1ncco1)c1nnc(C)n1-2 (stereo partly shown) [Compound I-581]
,,,< 500 nM,Cc1sc2c(c1C)C(c1ccc(N3CC(C4CCCC(Cc5ncc(C(=O)N[C@H]6C(C)(C)[C@H](Oc7ccc(C#N)c(Cl)c7)C6(C)C)cn5)C4)C3)cc1)=N[C@@H](Cc1ncco1)c1nnc(C)n1-2 (stereo partly shown) [Compound I-582]
,< 500 nM,,,Cc1sc2c(c1C)C(c1ccc(OC[C@@H]3CCCN(c4cnc(C(=O)N[C@H]5C(C)(C)[C@H](Oc6ccc(C#N)c(Cl)c6)C5(C)C)cn4)C3)cc1)=N[C@@H](Cc1ncco1)c1nnc(C)n1-2 [Compound I-591]
,< 500 nM,,,Cc1sc2c(c1C)C(c1ccc(OC3CC4(C3)CC3(CCN(c5ncc(C(=O)N(C)[C@H]6C(C)(C)[C@H](Oc7ccc(C#N)c(Cl)c7)C6(C)C)cn5)CC3)C4)cc1)=N[C@@H](Cc1ncco1)c1nnc(C)n1-2 [Compound I-592]
